Measured values as given in patent US20170052170A1, “NOVEL CELL LINES AND METHODS” (priority 2009, published 2017).
Read-outs that look alike come from different tables or passages of the source. Peptide text beside a SMILES is read from it.

How the values were obtained:
[1] = target: T1, sweet taste receptor (T1R2/T1R3) (Homo sapiens, UniProt Q7RTX0+Q8TE23, C757R/I191V/I486V/R317G); assay: Sweet cell-based calcium flux assay, HEK293T cells expressing T1R2, T1R3 and mouse Gα15; conditions: FIG. 24, one assay; read-out: EC50 values (calcium flux)
T1 construct: expressed in transfected cells; host or cells: HEK293T (ATCC CRL-11268)
T1 sequence (Q8TE23 20-839 I191V/R317G/I486V): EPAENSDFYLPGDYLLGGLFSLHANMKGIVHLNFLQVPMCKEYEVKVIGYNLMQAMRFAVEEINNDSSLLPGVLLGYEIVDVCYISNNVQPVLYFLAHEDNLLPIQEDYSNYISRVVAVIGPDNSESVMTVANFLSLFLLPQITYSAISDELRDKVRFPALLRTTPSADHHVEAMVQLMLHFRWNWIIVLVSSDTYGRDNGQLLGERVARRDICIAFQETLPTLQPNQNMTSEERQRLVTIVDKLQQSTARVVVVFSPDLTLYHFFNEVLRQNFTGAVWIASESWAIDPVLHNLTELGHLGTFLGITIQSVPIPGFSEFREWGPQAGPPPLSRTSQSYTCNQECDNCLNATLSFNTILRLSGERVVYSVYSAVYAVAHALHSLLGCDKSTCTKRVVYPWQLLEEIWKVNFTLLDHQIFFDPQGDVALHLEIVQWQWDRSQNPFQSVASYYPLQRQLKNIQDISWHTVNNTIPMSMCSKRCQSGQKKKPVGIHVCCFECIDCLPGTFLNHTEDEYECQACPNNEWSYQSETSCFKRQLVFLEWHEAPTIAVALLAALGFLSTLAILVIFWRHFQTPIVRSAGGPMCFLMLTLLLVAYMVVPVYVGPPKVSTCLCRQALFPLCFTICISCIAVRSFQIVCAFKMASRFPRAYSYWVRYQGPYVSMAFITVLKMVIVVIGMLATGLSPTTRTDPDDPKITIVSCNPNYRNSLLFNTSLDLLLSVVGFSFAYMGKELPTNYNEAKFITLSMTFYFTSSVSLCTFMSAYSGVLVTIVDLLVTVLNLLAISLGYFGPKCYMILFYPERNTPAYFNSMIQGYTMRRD
T1 sequence (Q7RTX0 21-852 C757R): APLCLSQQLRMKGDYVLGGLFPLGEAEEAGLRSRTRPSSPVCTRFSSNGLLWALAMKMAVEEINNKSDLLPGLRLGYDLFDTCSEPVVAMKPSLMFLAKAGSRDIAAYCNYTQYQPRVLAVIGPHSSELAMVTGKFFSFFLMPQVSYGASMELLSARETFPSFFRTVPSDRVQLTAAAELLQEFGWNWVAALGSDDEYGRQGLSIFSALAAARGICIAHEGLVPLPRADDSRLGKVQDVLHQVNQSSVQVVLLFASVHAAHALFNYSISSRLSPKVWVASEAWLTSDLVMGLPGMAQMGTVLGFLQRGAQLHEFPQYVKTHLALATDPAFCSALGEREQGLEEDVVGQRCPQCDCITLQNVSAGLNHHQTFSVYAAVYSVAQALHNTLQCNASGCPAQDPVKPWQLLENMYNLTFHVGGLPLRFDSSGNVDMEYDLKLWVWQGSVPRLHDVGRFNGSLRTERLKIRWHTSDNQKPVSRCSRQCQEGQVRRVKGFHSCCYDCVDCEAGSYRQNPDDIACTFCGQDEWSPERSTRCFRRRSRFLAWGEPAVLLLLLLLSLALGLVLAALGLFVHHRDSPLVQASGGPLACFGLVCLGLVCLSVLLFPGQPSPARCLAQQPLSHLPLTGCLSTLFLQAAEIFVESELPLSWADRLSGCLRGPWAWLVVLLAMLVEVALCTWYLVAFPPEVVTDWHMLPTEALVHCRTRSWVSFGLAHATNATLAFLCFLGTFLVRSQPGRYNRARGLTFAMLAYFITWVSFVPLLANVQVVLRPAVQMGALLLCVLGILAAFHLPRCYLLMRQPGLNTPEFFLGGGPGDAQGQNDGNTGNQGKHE
Excerpt: Plates are then loaded on a high throughput plate reader (Hamamatsu FDSS). […] Calcium flux is detected for 90 seconds.

[2] = target: T2, sweet taste receptor (human T1R2 and T1R3 subunits, mouse Gα15) (Homo sapiens, UniProt Q7RTX0+Q8TE23, C757R/I191V/I486V/R317G); assay: sweet taste receptor-expressing cell-based assay (calcium flux); conditions: natural, high intensity and artificial sweeteners; FIGS. 23 and 24
T2 construct: expressed in transfected cells; host or cells: HEK293T (ATCC CRL-11268)
T2 sequence (Q8TE23 20-839 I191V/R317G/I486V): T1 sequence (Q8TE23 20-839 I191V/R317G/I486V)
T2 sequence (Q7RTX0 21-852 C757R): T1 sequence (Q7RTX0 21-852 C757R)
Excerpt: FIG. 24 (A-C) is series of line graphs representing the data obtained in various dose response experiments using sweet taste receptor agonists in a sweet taste receptor-expressing cell-based assay (using cells of this invention). (A) The responses of a sweet taste receptor-expressing cell line to natural caloric sweeteners were plotted as a function of the agonist concentration. (B) Dose response curves of common artificial sweeteners in a sweet taste receptor-expressing cell-based assay. (C) Dose response curves of natural high-intensity sweeteners in a sweet taste receptor-expressing cell-based assay.
FIG. 25 is a series of representative response traces generated after performing a sweet taste receptor-expressing cell-based assay using cells of this invention.
To identify a taste receptor modulator (e.g., umami taste receptor modulator or sweet taste receptor modulator), one exposes a cell or cell line of the invention to a test compound under conditions in which the taste receptor (e.g., umami taste receptor or sweet taste receptor) would be expected to be functional and then detects a statistically significant change (e.g., p<0.05) in taste receptor activity (e.g., umami taste receptor activity or sweet taste receptor activity) compared to a suitable control, e.g., cells that are not exposed to the test compound. Positive and/or negative controls using known agonists or antagonists and/or cells expressing different combinations of taste receptor subunits (e.g., umami taste receptor subunits or sweet taste receptor subunits) (and optionally a G protein) may also be used. In some embodiments, the taste receptor activity (e.g., umami taste receptor activity or sweet taste receptor activity) to be detected and/or measured is calcium release from the endoplasmic reticulum as a result of the down stream signaling events following taste receptor activation (e.g., umami taste receptor activation or sweet taste receptor activation). One of ordinary skill in the art would understand that various assay parameters may be optimized, e.g., signal to noise ratio.
See, e.g., FIGS. 23 and 24.

GABAA α1β3γ2s (α1) = target: T3, GABAA α1β3γ2s (α1) (Homo sapiens, UniProt P14867+P18507+P28472); format: cell-based; conditions: CHO cells, membrane potential dye
T3 construct: expressed in transfected cells; host or cells: CHO
Method: (§1) Cells were plated 24 hours prior to assay at 10-25,000 cells per well in 384 well plates in growth media (Ham's F-12 media plus FBS and glutamine). […] Incubation was for 1 hour, followed by plate loading onto the high throughput fluorescent plate reader (Hamamastu FDSS). […] The plates were read for 90 seconds.
(§2) Interaction of cell lines with test compounds was evaluated by measuring the membrane potential of GABAA, in response to test compounds using the following protocol.

GABAA α2β3γ2s (α2) = target: T4, GABAA α2β3γ2s (α2) (Homo sapiens, UniProt P18507+P28472+P47869, A343T); format: cell-based
T4 construct: expressed in transfected cells; host or cells: CHO
Method: as §1, §2

GABAA α5β3γ2s (α5) = target: T5, GABAA α5β3γ2s (α5) (Homo sapiens, UniProt P18507+P28472+P31644); format: cell-based
T5 construct: expressed in transfected cells; host or cells: CHO
Method: as §1, §2

GABAA α3β3γ2s (α3) = target: T6, GABAA α3β3γ2s (α3) (Homo sapiens, UniProt P18507+P28472+P34903); format: cell-based; conditions: CHO cells, membrane potential dye
T6 construct: expressed in transfected cells; host or cells: CHO
Method: as §1, §2

[3] = system: GABAA (α1β3γ2s, α2β3γ2s, α3β3γ2s, α5β3γ2s); assay: In-cell readout assay using halide-sensitive meYFP, GABAA-meYFP-CHO cells; format: cell-based, human; conditions: increasing concentrations of GABA ligand
Method: The response of GABAA (subunit combinations of α1β3γ2s (A1), α2β3γ2s (A2), α3β3γ2s (A3) and α5β3γ2s (A5)) expressing CHO cells of the invention to test compounds was evaluated using the following protocol for an in-cell readout assay.
Cells were plated 24 hours prior to assay at 10-25,000 cells per well in 384 well plates in growth media (Ham's F-12 media plus FBS and glutamine). […] The assay plates were then loaded on the FDSS (Hamamatsu Corporation). […] The plates were read for 90 seconds.

human GC-C (human) = human GC-C (human) (UniProt P25092); assay: cell-based or functional assay
[4] = CHO cells, membrane potential dye

T3 sequence (P14867 28-456): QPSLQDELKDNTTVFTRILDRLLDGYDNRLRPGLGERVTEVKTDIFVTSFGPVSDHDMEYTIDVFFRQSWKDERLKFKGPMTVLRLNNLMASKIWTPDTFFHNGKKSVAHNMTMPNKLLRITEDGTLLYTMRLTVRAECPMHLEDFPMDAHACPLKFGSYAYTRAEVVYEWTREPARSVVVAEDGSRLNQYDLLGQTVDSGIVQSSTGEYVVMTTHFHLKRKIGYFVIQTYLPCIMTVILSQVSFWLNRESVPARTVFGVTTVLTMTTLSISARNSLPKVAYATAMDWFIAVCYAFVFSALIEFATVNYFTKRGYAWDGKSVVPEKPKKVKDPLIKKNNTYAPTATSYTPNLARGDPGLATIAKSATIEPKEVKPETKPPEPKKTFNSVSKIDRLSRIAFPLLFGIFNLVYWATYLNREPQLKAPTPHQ
T3 sequence (P28472 26-473): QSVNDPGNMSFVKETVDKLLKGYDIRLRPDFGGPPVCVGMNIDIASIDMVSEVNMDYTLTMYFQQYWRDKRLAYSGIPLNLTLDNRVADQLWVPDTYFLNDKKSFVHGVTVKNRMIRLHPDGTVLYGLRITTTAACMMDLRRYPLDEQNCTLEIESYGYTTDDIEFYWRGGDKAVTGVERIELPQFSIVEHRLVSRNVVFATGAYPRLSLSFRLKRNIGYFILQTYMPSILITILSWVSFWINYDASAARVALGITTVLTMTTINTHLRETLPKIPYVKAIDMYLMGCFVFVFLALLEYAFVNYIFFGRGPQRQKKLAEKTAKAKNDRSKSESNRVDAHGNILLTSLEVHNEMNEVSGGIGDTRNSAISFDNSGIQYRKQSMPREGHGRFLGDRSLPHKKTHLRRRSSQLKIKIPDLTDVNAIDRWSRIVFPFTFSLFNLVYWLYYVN
T3 sequence (P18507 40-467 isoform P18507-1 limits assumed): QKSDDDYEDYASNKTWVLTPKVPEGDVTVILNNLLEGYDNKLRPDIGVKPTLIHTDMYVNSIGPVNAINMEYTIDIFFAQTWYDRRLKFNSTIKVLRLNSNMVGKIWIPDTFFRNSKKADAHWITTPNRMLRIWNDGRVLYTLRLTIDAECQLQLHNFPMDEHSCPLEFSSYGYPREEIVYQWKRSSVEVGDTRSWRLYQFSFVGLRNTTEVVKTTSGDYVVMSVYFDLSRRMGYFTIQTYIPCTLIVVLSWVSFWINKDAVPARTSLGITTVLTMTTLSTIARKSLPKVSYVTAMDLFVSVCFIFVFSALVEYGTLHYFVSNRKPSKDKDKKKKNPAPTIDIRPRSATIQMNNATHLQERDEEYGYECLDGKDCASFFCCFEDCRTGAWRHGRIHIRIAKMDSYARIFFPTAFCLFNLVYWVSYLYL
T4 sequence (P47869 29-451 A343T): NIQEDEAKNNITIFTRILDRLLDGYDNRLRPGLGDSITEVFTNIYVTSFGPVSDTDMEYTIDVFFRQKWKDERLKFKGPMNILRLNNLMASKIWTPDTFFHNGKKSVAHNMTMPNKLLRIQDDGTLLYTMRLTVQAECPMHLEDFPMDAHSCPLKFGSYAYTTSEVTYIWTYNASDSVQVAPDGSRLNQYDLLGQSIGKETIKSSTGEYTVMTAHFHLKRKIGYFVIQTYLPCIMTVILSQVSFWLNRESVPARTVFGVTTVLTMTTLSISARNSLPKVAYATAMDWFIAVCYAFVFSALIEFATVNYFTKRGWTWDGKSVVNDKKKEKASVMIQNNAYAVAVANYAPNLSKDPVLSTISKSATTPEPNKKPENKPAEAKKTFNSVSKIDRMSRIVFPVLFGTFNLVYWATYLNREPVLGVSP
T4 sequence (P28472 26-473, stated change not applied): as the sequence (P28472 26-473) above
T4 sequence (P18507 40-467 isoform P18507-1 limits assumed, stated change not applied): as the sequence (P18507 40-467 isoform P18507-1 limits assumed) above
T5 sequence (P31644 32-462): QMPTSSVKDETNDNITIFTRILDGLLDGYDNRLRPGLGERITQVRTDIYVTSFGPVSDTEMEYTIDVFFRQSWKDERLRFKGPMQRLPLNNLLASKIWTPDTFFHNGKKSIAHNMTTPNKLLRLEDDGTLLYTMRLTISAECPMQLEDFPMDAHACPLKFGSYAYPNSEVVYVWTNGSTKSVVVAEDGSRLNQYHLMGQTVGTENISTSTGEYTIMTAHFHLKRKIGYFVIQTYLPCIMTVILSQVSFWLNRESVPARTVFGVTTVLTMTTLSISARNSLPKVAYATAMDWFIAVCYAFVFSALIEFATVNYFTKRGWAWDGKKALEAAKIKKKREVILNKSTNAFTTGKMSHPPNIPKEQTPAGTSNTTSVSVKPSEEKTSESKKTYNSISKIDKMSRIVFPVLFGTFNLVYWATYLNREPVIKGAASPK
T5 sequence (P28472 26-473): as the sequence (P28472 26-473) above
T5 sequence (P18507 40-467 isoform P18507-1 limits assumed): as the sequence (P18507 40-467 isoform P18507-1 limits assumed) above
T6 sequence (P34903 29-492): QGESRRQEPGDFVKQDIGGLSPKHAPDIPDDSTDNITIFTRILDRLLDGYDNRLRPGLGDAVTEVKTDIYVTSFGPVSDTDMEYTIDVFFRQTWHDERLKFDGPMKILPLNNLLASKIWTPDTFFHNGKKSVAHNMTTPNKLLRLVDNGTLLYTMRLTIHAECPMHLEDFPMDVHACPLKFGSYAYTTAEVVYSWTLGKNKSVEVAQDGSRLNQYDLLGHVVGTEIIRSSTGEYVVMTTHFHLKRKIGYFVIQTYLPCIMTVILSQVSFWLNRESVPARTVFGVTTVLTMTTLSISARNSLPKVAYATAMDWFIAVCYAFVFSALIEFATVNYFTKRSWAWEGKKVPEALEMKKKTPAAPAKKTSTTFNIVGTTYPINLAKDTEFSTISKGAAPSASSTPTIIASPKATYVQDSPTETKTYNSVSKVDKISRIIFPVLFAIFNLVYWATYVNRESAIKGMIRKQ
T6 sequence (P28472 26-473): as the sequence (P28472 26-473) above
T6 sequence (P18507 40-467 isoform P18507-1 limits assumed): as the sequence (P18507 40-467 isoform P18507-1 limits assumed) above
Chain of human GC-C (human) (P25092 24-1073): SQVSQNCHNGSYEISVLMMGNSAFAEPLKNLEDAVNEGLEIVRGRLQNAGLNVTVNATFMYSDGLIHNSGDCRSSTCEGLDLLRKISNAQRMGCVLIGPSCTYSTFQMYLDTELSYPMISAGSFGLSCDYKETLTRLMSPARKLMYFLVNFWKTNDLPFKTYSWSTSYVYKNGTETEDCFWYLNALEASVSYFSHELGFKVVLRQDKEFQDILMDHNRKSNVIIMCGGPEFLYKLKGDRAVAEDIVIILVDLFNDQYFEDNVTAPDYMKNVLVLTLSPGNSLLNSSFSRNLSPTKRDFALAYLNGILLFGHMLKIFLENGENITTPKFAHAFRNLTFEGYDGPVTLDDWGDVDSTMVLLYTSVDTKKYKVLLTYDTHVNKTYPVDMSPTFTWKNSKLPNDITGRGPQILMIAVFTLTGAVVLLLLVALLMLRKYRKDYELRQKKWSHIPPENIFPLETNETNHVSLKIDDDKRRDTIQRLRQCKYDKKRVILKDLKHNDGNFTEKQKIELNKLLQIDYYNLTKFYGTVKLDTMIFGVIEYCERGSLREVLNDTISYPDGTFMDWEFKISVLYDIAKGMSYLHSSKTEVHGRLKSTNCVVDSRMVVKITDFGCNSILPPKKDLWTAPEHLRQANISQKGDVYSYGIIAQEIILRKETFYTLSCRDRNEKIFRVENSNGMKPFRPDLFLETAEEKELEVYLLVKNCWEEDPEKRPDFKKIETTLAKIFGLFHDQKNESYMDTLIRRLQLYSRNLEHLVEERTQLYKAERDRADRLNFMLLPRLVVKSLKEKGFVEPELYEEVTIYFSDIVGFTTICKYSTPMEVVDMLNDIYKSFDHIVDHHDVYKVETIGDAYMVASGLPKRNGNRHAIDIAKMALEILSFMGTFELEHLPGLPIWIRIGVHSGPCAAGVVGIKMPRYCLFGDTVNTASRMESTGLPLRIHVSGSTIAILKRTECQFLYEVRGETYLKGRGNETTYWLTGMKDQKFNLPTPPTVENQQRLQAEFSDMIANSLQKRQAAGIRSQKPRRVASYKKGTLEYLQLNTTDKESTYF

Molecule | response of sweet taste receptor cells and cell lines to known classes of sweet compounds [2] | EC50 (GABAA α1β3γ2s (α1)) | EC50 (GABAA α2β3γ2s (α2); [4]) | EC50 (GABAA α3β3γ2s (α3)) | further results
OC[C@H]1O[C@@](CO)(O[C@H]2O[C@H](CO)[C@@H](O)[C@H](O)[C@H]2O)[C@@H](O)[C@@H]1O [sucrose] | respond | – | – | – | EC50 [1]: < 3500 µM
CC12CCC(O)CC1CCC1C2CCC2(C)C(C(=O)CO)CCC12 (stereo not drawn) [3-alpha, 21-dihydroxy-5-alpha-pregnan-20-one] | – | 0.382 µM | 0.123 µM | 0.0802 µM | EC50 (GABAA α5β3γ2s (α5); [4]): 0.0173 µM
Ivermectin | – | 4.26 µM | 0.767 µM | 0.798 µM | EC50 (GABAA α5β3γ2s (α5); [4]): 0.687 µM
CC1=CC(=O)NS(=O)(=O)O1 [acesulfamek] | respond | – | – | – | –
mogroside | respond | – | – | – | –
CC(=O)C1CCC2C3CCC4CC(O)CCC4(C)C3CCC12C (stereo not drawn) [5-alpha-Pregnan-3alpha-ol-20-one] | – | 0.692 µM | – | 0.08 µM | EC50 (GABAA α2β3γ2s (α2)): 0.14 µM; EC50 (GABAA α5β3γ2s (α5)): 0.0336 µM
NCCCC(=O)O [GABA] | – | – | – | – | quench of meYFP signal [3]: increasing quench of meYFP signal
CC(C)(C)c1cc(C=C(C#N)C#N)cc(C(C)(C)C)c1O [Tyrphostin A9] | – | 1.8 µM | 0.88 µM | 5 µM | EC50 (GABAA α5β3γ2s (α5); [4]): 54 µM
COc1cc(/C=C(\C#N)C(=O)c2ccc(O)c(O)c2)cc(I)c1O [I—OMe Tyrphostin 538] | – | 3.5 µM | 1.5 µM | 2.2 µM | EC50 Values α5 (result in words) (GABAA α5β3γ2s (α5); [4]): Not active
O=C1NS(=O)(=O)c2ccccc21 [saccharin] | respond | – | – | – | –
COC(=O)[C@H](Cc1ccccc1)NC(=O)[C@@H](N)CC(=O)O [asparatame] (H-Asp-Phe-OMe) | respond | – | – | – | –
guanylin (peptide) | – | – | – | – | EC50 of guanylin dose-response (absorbance as a function of changes in cGMP levels) (human GC-C (human)): 0.0011 µM; level of cGMP (human GC-C (human)): 6 pmol/mL
C=C1C[C@@]23CC[C@H]4[C@@](C)(CCC[C@@]4(C)C(=O)O[C@@H]4O[C@H](CO)[C@@H](O)[C@H](O)[C@H]4O)[C@@H]2CC[C@]1(O[C@@H]1O[C@H](CO)[C@@H](O)[C@H](O[C@@H]2O[C@H](CO)[C@@H](O)[C@H](O)[C@H]2O)[C@H]1O[C@@H]1O[C@H](CO)[C@@H](O)[C@H](O)[C@H]1O)C3 [rebaudioside A] | respond | – | – | – | –
